Reference: patent publication US7112676B2, “Pyrimido compounds having antiproliferative activity” (Hoffmann-La Roche Inc., priority 2002, dated 2006)

Legend:
FGF-stimulated HUVEC = FGF-stimulated HUVEC proliferation assay (BrdU); format: cell-based; conditions: Homo sapiens, FGF 5 ng per mL, BrdU labeling, 24 hour exposure, read-out: IC50 (μM) of VEGF and FGF-Stimulated HUVEC Proliferation Assays HUVEC/bFGFR
Description: (§1) The antiproliferative activity of test compounds of this invention in cell-based assays was evaluated by BrdU assay using the BrdU kit (Roche Biochemicals 1-647-229). Human umbilical vein endothelial cells (HUVEC, Clonetics CC-2519) were cultured in EGM-2 (Clonetics CC-3162) medium and seeded at 10000 cells per well in a volume of 200 μL of EGM-2 (Clonetics CC-3162) media in a 96-well flat bottom plates (Costar 3595) overnight. After 24 hours of growth at 37° C. with 5% CO2, the incubation media was removed slowly by aspiration and the content of each well was washed with 300 μL pre-warmed EBM-2 (Clonetics CC-3156) containing 50 μg per mL of gentamycin and 50 ng per mL of amphotercin-B (Clonetics CC-4083). Subsequently, the remaining media was again aspirated and replaced with 160 μL per well of serum starvation media (EBM-2 supplemented with 1% heat inactivated FBS (Clonetics CC-4102), 50 μg per mL gentamycin and 50 ng per mL of amphotercin-B (Clonetics CC-4083), 10 units per mL of Wyeth-Ayerst heparin (NDC0641-0391-25), and 2 mM L-glutamine (GIBCO 25030-081). After serum starving the cells for 24 hours, 20 μL of test compound at 10× test concentration in serum starvation medium with 2.5% DMSO was added to the appropriate wells. The control wells contained 20 μL of serum starvation medium with 2.5% DMSO. Plates were returned to the incubator for 2 hours. After pre-incubating the cells with the test compounds for 2 hours, 20 μL of growth factors at 10× assay concentration diluted in serum starvation media, FGF at 50 ng per mL, or VEGF (R&D systems 293-VE) at 200 ng per mL were added. The final concentration of FGF in the assay was 5 ng per mL and the final concentration of VEGF in the assays was 20 ng per mL. The growth factor free control wells had 20 μL per well of serum starvation media with the same amount of BSA as the wells with growth factors. The plates were returned to the incubator for an additional 22 hours.
(§2) After 24 hour exposure to the test compounds, the cells were labeled with BrdU (Roche Biochemicals 1-647-229), by adding 20 μL per well of BrdU labeling reagent that has been diluted (1:100) in serum starvation medium. The plates were then returned to the incubator for 4 hours. The labeling medium was removed by draining the medium onto paper towels. The cells were fixed and DNA denatured by adding 200 μL of fixation/denaturation solution to each well and incubating at room temperature for 45 minutes. The fixation/denaturation solution was drained onto paper towels and to each well was added 100 μL of anti-BrdU-POD and the wells were incubated for 2 hours at room temperature. The antibody solution was removed and the wells were each washed 3–4 times with 300 μl PBS. 100 μL of the TMB substrate solution was added to each well and the wells were incubated at room temperature for 5–8 minutes. The reaction was then stopped by adding 100 μL per well of 1 M phosphoric acid. The plates were read at 450 nm with reference wavelength of 650 nm. The percent inhibition for each test compound was calculated by subtracting the absorbency of the blank (no cells) wells from all wells, then subtracting the division of the average absorbency of each test duplicate by the average of the controls from 1. The final product was then multiplied by 100 (% of inhibition=(1−average absorbency of test duplicate/average of control)100). The IC50 value is the concentration of test compound that inhibits by 50% BrdU labeling, and is a measure of inhibition of cell proliferation. The IC50 is determined from the linear regression of a plot of the logarithm of the concentration versus percent inhibition.

EGFR = EGFR (Homo sapiens, UniProt P00533); assay: EGFR kinase HTRF assay; format: biochemical; conditions: 0.5 μM ATP, read-out: IC50 (μM) - Enzyme Inhibition Assays EGFR
Sequence of EGFR (P00533 25-1210, species assumed): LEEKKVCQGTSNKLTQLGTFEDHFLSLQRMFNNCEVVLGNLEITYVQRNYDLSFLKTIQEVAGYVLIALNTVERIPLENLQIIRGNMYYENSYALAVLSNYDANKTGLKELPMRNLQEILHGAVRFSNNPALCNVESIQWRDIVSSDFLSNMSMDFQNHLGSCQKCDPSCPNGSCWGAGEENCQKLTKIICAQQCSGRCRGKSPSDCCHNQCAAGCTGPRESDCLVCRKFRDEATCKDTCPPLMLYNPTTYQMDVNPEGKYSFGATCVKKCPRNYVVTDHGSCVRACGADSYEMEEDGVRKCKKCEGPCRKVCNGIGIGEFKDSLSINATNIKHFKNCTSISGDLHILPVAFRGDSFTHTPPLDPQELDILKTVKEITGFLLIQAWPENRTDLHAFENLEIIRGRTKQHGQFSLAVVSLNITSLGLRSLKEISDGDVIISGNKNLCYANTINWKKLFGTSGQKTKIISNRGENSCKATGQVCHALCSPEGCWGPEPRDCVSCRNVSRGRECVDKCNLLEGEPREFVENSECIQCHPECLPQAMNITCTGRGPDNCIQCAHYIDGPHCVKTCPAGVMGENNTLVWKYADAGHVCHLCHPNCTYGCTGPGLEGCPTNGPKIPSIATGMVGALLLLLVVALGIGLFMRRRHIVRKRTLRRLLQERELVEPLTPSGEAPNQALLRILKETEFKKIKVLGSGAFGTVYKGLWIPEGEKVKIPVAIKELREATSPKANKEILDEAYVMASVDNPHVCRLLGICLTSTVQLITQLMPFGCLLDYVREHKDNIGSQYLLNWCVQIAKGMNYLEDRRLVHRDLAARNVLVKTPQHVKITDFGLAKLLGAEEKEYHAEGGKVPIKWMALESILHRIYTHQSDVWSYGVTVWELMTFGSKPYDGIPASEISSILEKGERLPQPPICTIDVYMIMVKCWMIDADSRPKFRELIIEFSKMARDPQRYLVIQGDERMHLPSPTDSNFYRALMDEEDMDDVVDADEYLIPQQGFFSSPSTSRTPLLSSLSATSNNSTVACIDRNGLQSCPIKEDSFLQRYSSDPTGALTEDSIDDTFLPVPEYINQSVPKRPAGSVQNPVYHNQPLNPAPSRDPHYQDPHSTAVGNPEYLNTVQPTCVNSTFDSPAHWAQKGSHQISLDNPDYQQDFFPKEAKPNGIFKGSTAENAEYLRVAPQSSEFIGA
Description: To determine inhibition of KDR, FGFR, EGFR, and PDGFR activity, kinase assays were conducted using an HTRF (Homogeneous Time Resolved Fluorescence) assay. This assay is described in A. J. Kolb et. al., Drug Discovery Today, 1998, 3(7), p 333.
Kinase activity assays were performed in 96-well polypropylene plates (Falcon) with a total volume of 90 μL in each well. Each well contained 1 μM KDR substrate (Biotin-EEEEYFELVAKKKK), 1 nM activated KDR, and a test compound with one of 8 assay concentrations ranging from 100 μM to […] (1:5 serial dilution). The kinase activity assay was done in the presence of 100 mM HEPES, pH 7.4, 1 mM DTT, 0.1 mM Na2VO4, 25 mM MgCl2, 50 mM NaCl (from KDR stock solution), 1% DMSO (from compound), 0.3 mM ATP (at Km concentration) and 0.02% BSA. The reaction was incubated at 37° C. for 30 minutes. To stop the KDR reaction, 72 μL of reaction mixture was transferred into a STOP plate containing 18 μL of revelation buffer (20 mM EDTA, 50 mM HEPES, pH 7.4, 0.02% BSA, 10 nM Eu-labelled anti-pY antibody (final conc. 2 nM), and 100 nM streptavidin (final conc. 20 nM)). After mixing, 35 μL of solution was transferred into duplicate wells of a 384-well black plate (Costar), and read at 615/665 nm on a Wallac Victor 5 reader.
The EGFR kinase activity assay was performed with 1 μM substrate (Biotin-EEEEYFELV), 1.5 nM EGFR, test compounds, 100 mM HEPES, pH 7.4, 1 mM DTT, 5 mM MgCl2, 2 mM MnCl2, 1% DMSO, 0.5 μM ATP (Km for EGFR), 0.1 mM Na2VO4, and 0.02% BSA. The rest of the assay was performed in the same manner as the KDR assay.
Compound IC50 values were determined from duplicate sets of data, and calculated by using Excel and fitting data to equation Y=[(a−b)/{1+(X/c)^d]+b, where a and b are enzyme activity in the presence of no test inhibitor compound and an infinite amount of inhibitor test compound, respectively, c is the IC50 and d is the hill constant of the compound response. The IC50 value is the concentration of test compound that reduces by 50% the enzyme activity under the test conditions described.

VEGF-stimulated HUVEC = VEGF-stimulated HUVEC proliferation assay (BrdU); format: cell-based; conditions: Homo sapiens, VEGF 20 ng per mL, BrdU labeling, 24 hour exposure, read-out: IC50 (μM) of VEGF and FGF-Stimulated HUVEC Proliferation Assays HUVEC/VEFG
Description: as §1, §2

Measured: IC50

COc1ccc(N2C(=O)N(c3ccccc3)c3nc(Nc4ccccc4)ncc3C2C)cc1 (racemic) [Example 1g, (±)-3-(4-Methoxy-phenyl)-4-methyl-1-phenyl-7-phenylamino-3,4-dihydro-1H-pyrimido[4,5-d]pyrimidin-2-one]
< 10 µM: all assays above

COc1ccc(N2C(=O)N(c3ccc(OC)cc3)C(C)c3cnc(Nc4ccccc4)nc32)cc1 (racemic) [Example 4b, (±)-1,3-Bis-(4-methoxy-phenyl)-4-methyl-7-phenylamino-3,4-dihydro-1H-pyrimido[4,5-d]pyrimidin-2-one]
< 10 µM: all assays above

COc1ccc(N2C(=O)N(c3cccc(C#N)c3)c3nc(Nc4ccccc4)ncc3C2C)cc1 (racemic) [Example 5b, (±)-3-[3-(4-Methoxy-phenyl)-4-methyl-2-oxo-7-phenylamino-3,4-dihydro-2H-pyrimido[4,5-d]pyrimidin-1-yl]-benzonitrile]
< 10 µM: all assays above

COc1ccc(N2C(=O)N(c3cccc(C(N)=O)c3)c3nc(Nc4ccccc4)ncc3C2C)cc1 (racemic) [Example 6, (±)-3-[3-(4-Methoxy-phenyl)-4-methyl-2-oxo-7-phenylamino-3,4-dihydro-2H-pyrimido[4,5-d]pyrimidin-1-yl]-benzamide]
< 10 µM: all assays above

COc1ccc(N2C(=O)N(c3ccccc3)c3nc(Nc4ccccc4)ncc3C2C)c(F)c1 (racemic) [Example 8d, (±)-3-(2-Fluoro-4-methoxy-phenyl)-4-methyl-1-phenyl-7-phenylamino-3,4-dihydro-1H-pyrimido[4,5-d]pyrimidin-2-one]
< 10 µM: all assays above

COc1ccc(N2C(=O)N(c3cccc(C#N)c3)c3nc(Nc4ccccc4)ncc3C2C)c(F)c1 (racemic) [Example 9b, (±)-3-[3-(2-Fluoro-4-methoxy-phenyl)-4-methyl-2-oxo-7-phenylamino-3,4-dihydro-2H-pyrimido[4,5-d]pyrimidin-1-yl]-benzonitrile]
< 10 µM: all assays above

COc1ccc(N2C(=O)N(c3cccc(C(N)=O)c3)c3nc(Nc4ccccc4)ncc3C2C)c(F)c1 (racemic) [Example 10, (±)-3-[3-(2-Fluoro-4-methoxy-phenyl)-4-methyl-2-oxo-7-phenylamino-3,4-dihydro-2H-pyrimido[4,5-d]pyrimidin-1-yl]-benzamide]
< 10 µM: all assays above

COc1ccc(N2C(=O)N(c3ccccc3)c3nc(Nc4ccccc4)ncc3[C@@H]2C)cc1 (single isomer, unassigned) [Example 3]
< 10 µM: all assays above

COc1ccc(N2C(=O)N([C@H](C)CO)c3nc(Nc4ccccc4)ncc3[C@@H]2C)cc1 [Example 15b, 1-(2-Hydroxy-1-(R)-methyl-ethyl)-3-(4-methoxy-phenyl)-4-(S)-methyl-7-phenylamino-3,4-dihydro-1H-pyrimido[4,5-d]pyrimidin-2-one]
< 10 µM: all assays above
